pIC50: −log10 of the molar value.
Tests used:
[1] = test system: MV4-11; assay: Antiproliferative activity against human MV4-11 cells assessed as inhibition of cell viability measured after 72 hrs by MTT assay; format: functional, cell-based; details: MV4-11, 72 h
[2] = molecular target: T1, DNA (cytosine-5)-methyltransferase 1 (Homo sapiens, UniProt P26358); assay: Inhibition of DNMT1 (unknown origin) at 5 uM preincubated for 15 mins followed by substrate and [3H-SAM] addition and measured after 60 mins by microbeta analysis relative to control; details: time 75.0 min
[3] = molecular target: T2, DNA (cytosine-5)-methyltransferase 3A (Homo sapiens, UniProt Q9Y6K1); assay: Inhibition of DNMT3A (unknown origin) at 5 uM preincubated for 15 mins followed by substrate and [3H-SAM] addition and measured after 60 mins by microbeta analysis relative to control; details: time 75.0 min
[4] = test system: U-937; assay: Antiproliferative activity against human U-937 cells assessed as inhibition of cell viability measured after 72 hrs by MTT assay; format: functional, cell-based; details: U-937, 72 h
[5] = molecular target: T3, Histone-lysine N-methyltransferase EHMT2 (Homo sapiens) (UniProt Q96KQ7); assay: Inhibition of G9a (unknown origin) at 5 uM preincubated for 15 mins followed by substrate and [3H-SAM] addition and measured after 60 mins by microbeta analysis relative to control; details: time 75.0 min
T3 sequence (whole entry): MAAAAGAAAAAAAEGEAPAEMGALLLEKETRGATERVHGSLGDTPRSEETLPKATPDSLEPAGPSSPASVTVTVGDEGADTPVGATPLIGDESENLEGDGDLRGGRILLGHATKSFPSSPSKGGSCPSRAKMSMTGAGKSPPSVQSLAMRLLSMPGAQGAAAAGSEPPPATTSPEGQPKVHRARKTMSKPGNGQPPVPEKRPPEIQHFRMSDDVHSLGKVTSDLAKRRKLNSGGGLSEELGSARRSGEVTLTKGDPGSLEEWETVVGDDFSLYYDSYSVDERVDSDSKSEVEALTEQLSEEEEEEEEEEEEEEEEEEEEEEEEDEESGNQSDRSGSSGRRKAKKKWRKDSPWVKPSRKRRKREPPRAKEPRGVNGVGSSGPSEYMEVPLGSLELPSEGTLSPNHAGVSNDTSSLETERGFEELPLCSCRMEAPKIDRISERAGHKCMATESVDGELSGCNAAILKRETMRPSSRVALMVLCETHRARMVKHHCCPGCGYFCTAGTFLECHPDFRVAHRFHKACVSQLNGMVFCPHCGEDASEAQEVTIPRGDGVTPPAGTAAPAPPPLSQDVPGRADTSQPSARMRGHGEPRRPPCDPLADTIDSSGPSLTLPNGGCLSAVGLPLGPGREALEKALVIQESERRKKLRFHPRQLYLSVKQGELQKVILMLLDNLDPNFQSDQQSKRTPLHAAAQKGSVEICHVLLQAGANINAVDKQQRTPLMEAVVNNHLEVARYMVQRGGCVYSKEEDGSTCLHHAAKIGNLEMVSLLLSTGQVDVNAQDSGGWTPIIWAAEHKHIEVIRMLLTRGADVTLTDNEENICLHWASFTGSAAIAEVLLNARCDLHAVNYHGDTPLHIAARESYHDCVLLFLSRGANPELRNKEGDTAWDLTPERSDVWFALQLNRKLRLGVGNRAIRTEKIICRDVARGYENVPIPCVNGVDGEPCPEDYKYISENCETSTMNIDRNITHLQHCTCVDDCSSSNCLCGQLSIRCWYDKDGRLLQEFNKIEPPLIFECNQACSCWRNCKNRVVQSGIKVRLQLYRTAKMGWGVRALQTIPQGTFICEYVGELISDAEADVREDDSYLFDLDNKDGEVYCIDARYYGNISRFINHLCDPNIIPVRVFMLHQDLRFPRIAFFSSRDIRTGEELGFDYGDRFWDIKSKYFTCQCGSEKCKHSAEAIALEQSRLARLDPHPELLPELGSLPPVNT

[6] = molecular target: T4, DNA (cytosine-5)-methyltransferase 3B (Homo sapiens, UniProt Q9UBC3); assay: Inhibition of DNMT3B (unknown origin) at 5 uM preincubated for 15 mins followed by substrate and [3H-SAM] addition and measured after 60 mins by microbeta analysis relative to control; details: time 75.0 min
[7] = molecular target: T1, DNA (cytosine-5)-methyltransferase 1; assay: Inhibition of DNMT1 (unknown origin) preincubated for 15 mins followed by substrate and [3H-SAM] addition and measured after 60 mins by microbeta analysis
[8] = molecular target: T4, DNA (cytosine-5)-methyltransferase 3B; assay: Inhibition of DNMT3B (unknown origin) preincubated for 15 mins followed by substrate and [3H-SAM] addition and measured after 60 mins by microbeta analysis
[9] = molecular target: T2, DNA (cytosine-5)-methyltransferase 3A; assay: Inhibition of DNMT3A (unknown origin) preincubated for 15 mins followed by substrate and [3H-SAM] addition and measured after 60 mins by microbeta analysis

T2 sequence (Q9Y6K1 whole entry, looked up): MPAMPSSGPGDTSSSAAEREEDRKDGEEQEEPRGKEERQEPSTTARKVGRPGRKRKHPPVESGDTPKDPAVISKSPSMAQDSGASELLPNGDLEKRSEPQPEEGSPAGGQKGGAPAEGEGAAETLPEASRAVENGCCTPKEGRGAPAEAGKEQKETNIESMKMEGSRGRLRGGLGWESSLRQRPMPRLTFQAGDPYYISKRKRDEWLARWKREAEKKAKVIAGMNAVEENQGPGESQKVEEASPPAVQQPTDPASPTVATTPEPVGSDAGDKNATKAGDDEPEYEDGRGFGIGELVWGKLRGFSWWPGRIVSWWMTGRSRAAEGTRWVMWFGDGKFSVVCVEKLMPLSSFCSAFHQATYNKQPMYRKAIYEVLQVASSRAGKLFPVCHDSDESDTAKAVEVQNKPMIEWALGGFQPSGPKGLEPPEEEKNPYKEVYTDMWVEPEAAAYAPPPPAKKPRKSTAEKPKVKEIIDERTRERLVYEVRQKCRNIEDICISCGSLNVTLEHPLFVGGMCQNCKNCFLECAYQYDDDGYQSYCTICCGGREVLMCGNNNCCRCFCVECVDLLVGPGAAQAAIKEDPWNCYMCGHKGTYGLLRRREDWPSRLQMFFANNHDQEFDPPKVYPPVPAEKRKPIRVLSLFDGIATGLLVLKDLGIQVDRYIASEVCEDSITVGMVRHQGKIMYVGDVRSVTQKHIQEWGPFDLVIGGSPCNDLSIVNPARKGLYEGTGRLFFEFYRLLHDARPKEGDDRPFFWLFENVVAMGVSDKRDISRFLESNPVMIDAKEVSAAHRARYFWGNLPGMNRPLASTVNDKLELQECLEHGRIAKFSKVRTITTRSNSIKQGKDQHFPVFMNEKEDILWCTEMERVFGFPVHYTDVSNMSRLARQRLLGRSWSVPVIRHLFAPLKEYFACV
T1 sequence (P26358 whole entry): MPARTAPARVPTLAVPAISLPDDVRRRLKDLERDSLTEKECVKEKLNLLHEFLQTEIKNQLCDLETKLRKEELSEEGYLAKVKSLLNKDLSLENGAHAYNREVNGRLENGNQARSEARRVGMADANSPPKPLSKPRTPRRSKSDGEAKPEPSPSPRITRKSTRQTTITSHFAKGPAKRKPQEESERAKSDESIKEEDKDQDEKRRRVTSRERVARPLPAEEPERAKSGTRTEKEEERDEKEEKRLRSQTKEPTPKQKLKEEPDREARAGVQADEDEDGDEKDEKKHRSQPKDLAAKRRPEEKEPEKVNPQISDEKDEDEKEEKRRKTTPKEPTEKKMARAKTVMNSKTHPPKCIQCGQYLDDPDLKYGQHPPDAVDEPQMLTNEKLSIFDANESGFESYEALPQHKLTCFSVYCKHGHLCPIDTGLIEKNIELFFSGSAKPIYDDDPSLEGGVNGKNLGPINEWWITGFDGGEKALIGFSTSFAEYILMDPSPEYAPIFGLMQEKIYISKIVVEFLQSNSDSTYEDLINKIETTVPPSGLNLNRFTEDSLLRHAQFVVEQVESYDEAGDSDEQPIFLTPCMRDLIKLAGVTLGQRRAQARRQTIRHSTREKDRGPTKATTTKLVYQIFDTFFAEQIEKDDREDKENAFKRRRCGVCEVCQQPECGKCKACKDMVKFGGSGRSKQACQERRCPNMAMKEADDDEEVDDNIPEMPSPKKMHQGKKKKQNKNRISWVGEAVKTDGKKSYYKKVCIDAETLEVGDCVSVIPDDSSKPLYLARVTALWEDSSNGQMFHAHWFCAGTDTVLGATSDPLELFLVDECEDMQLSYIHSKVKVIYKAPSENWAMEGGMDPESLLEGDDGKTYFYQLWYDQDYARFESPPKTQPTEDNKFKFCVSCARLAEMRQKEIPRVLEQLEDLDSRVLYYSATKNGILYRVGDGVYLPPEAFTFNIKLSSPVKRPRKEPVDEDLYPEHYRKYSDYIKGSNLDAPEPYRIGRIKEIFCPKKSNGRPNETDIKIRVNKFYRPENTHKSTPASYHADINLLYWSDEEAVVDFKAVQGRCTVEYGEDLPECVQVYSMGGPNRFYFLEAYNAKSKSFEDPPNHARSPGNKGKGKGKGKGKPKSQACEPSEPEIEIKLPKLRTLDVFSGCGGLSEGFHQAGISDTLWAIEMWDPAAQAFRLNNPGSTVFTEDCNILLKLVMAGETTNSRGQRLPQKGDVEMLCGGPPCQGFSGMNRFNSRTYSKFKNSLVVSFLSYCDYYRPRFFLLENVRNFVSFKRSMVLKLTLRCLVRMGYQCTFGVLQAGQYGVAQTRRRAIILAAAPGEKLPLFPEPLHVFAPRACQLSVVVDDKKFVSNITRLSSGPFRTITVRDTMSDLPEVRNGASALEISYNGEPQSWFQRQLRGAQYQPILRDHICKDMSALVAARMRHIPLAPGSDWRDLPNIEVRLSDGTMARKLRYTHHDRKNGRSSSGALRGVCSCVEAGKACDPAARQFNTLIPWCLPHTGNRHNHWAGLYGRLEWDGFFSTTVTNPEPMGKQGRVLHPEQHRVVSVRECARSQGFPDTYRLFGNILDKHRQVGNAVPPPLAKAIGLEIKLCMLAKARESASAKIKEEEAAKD

Compound	pIC50 [1]	inhibition [2]	inhibition [3]	pIC50 [4]	inhibition [5]	inhibition [6]	pIC50 [7]	pIC50 [8]	pIC50 [9]
Cc1ccc(-c2cc(NCC3CCN(C(=O)OCc4ccccc4)CC3)c3cnn(CCCN4CCCC4)c3c2)o1	5.97	0.36%	12%	5.16	9.7%	53%	< 4.52	–	–
Cc1ccc(-c2nc(NC3CCN(C)CC3)c3ccn(CCCN4CCCC4)c3n2)o1	4.93	43%	16.5%	4.36	7.2%	-2.5%	–	4.84	5.10
CC(C)N1CCC(Nc2nc(N3CCCCC3)nc3c2ccn3CCCN2CCCC2)CC1	4.91	13%	0.8%	4.84	6.5%	11%	–	–	–
Cc1ccc(-c2cc(NCC3CCNCC3)c3cnn(CCCN4CCCC4)c3c2)o1	5.63	41%	20%	5.05	22%	–	–	–	–
CC(C)N1CCC(Nc2nc(N3CCCCC3)nc3c2ncn3CCCN2CCCC2)CC1	< 4.00	12%	4.3%	< 4.00	7.6%	9.9%	–	–	–
CN1CCC(Nc2nc(N3CCOCC3)nc3c2ccn3CCCN2CCCC2)CC1	4.59	25%	-1.8%	< 4.00	7.2%	15%	–	–	–
CN1CCC(Nc2nc(-c3ccc(F)cc3)nc3c2ccn3CCCN2CCCC2)CC1	5.78	63%	13%	5.61	0.3%	-6.6%	–	4.74	5.40
CC(C)(C)OC(=O)N1CCC(CNc2cc(-c3ccc(F)cc3)cc3c2cnn3CCCN2CCCC2)CC1	5.92	32%	6.8%	5.97	–	9.1%	–	–	–
CN1CCC(Nc2nc(N3CCCCC3)nc3c2ccn3CCCN2CCCC2)CC1	5.02	20%	6.9%	4.75	1.9%	-9.7%	–	–	–
CC(C)N1CCC(Nc2nc(-c3ccc(F)cc3)nc3c2ncn3CCCN2CCCC2)CC1	4.98	3.3%	14%	4.89	-4.9%	11%	4.76	–	–
CN1CCN(c2cc(NCC3CCN(C(=O)OC(C)(C)C)CC3)c3cnn(CCCN4CCOCC4)c3c2)CC1	4.66	98%	19%	4.62	10%	31%	–	–	–
Cc1ccc(-c2cc(NCC3CCN(Cc4ccccc4)CC3)c3cnn(CCCN4CCCC4)c3c2)o1	6.00	61%	25%	5.80	14%	–	–	–	–
CN1CCC(Nc2nc(N3CCN(C)CC3)nc3c2ccn3CCCN2CCCC2)CC1	4.95	39%	11%	4.51	-1.9%	11%	–	–	5.55
CN1CCN(c2cc(NCC3CCN(C(=O)C4CCCC4)CC3)c3cnn(CCCN4CCOCC4)c3c2)CC1	5.06	–	–	–	–	–	–	–	–
Cc1ccc(-c2cc(NC3CCN(C(C)C)CC3)c3cnn(CCCN4CCCC4)c3c2)o1	4.92	56%	13%	4.91	12%	-9.4%	–	–	–
CC(C)N1CCC(Nc2nc(-c3ccccc3)nc3c2ncn3CCCN2CCCC2)CC1	5.05	7.2%	21%	4.91	6%	0.7%	4.92	–	–
CN1CCC(Nc2nc(-c3ccc(C(F)(F)F)cc3)nc3c2ccn3CCCN2CCCC2)CC1	5.94	42%	9.7%	6.01	–	1.1%	–	–	–
CN1CCC(Nc2nc(-c3ccc(F)nc3)nc3c2ccn3CCCN2CCOCC2)CC1	4.97	17%	16%	5.16	11%	0.2%	–	–	–
Cc1ccc(-c2nc(NC3CCN(C(C)C)CC3)c3ncn(CCCN4CCCC4)c3n2)o1	4.34	37%	22%	4.26	2.5%	2%	4.62	–	–
CC(C)N1CCC(Nc2nc(-c3cn[nH]c3)nc3c2ncn3CCCN2CCCC2)CC1	< 4.00	49%	8.6%	< 4.00	-2.4%	-5.5%	4.26	–	–
COc1ccc(-c2cc(NCC3CCN(Cc4ccccc4)CC3)c3cnn(CCCN4CCCC4)c3c2)cc1	5.84	48%	24%	5.99	–	1.2%	–	–	–

Second part, the compound after the results:

pIC50 [1]	inhibition [2]	inhibition [3]	pIC50 [4]	inhibition [5]	inhibition [6]	pIC50 [7]	pIC50 [8]	pIC50 [9]	Compound
5.08	17%	-6.9%	4.85	–	–	–	–	–	CC(C)N1CCC(Nc2nc(N3CCN(C)CC3)nc3c2ncn3CCCN2CCCC2)CC1
4.39	6.7%	2.6%	< 4.00	-1.4%	-9.7%	–	–	–	CC(C)N1CCC(Nc2nc(N3CCOCC3)nc3c2ccn3CCCN2CCCC2)CC1
4.96	25%	4.2%	4.33	1.3%	–	–	–	–	CN1CCC(Nc2nc(N3CCCC3)nc3c2ccn3CCCN2CCCC2)CC1
5.97	1.6%	17%	5.49	12%	11%	–	–	–	Cc1ccc(-c2cc(NCC3CCN(C(=O)OC(C)(C)C)CC3)c3cnn(CCCN4CCCC4)c3c2)o1
4.58	31%	–	4.36	2.9%	–	–	–	5.21	CN1CCC(Nc2nc(N3CCCN(C)CC3)nc3c2ccn3CCCN2CCCC2)CC1
4.62	21%	3.7%	4.39	12%	-0.3%	–	–	–	CN1CCC(Nc2nc(N3CCCCC3)nc3c2ccn3CCCN2CCOCC2)CC1
5.54	20%	6.6%	4.81	3.6%	4.3%	–	–	–	CC(C)N1CCC(Nc2nc(N3CCN(C)CC3)nc3c2ccn3CCCN2CCCC2)CC1
4.62	25%	9.5%	4.23	12%	16%	–	–	–	CN1CCC(Nc2nc(N3CCN(C)CC3)nc3c2ccn3CCCN2CCOCC2)CC1
5.18	45%	8.6%	4.74	1.1%	6.6%	–	–	5.13	CN1CCC(Nc2nc(-c3ccccc3)nc3c2ccn3CCCN2CCCC2)CC1
< 4.00	35%	7.2%	< 4.00	-2%	-6.9%	–	–	5.15	CN1CCC(Nc2nc(-c3cn[nH]c3)nc3c2ccn3CCCN2CCCC2)CC1

Source: ChEMBL document CHEMBL6153174, “Design and Synthesis of Novel Deazapurine DNMT 1 Inhibitors with In Vivo Efficacy in DLBCL” (J Med Chem, 2025)
